Measured values as given in patent publication US7973061B2, “Anaplastic lymphoma kinase modulators and methods of use” (Exelixis, Inc., priority 2004, dated 2011).

Target: T1, ALK (baculovirus expressed human ALK kinase domain F1098-K1410) (Homo sapiens, UniProt Q9UM73)
T1 construct: human ALK kinase domain F1098-K1410; made in house
Experiment: biochemical
Conditions: 1 μM ATP, 4 μM poly-AEKY, 12 nM ALK, 2 hours at ambient temperature; read-out: ALK IC50
Method in brief: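 Baculovirus-expressed human ALK kinase domain (F1098-K1410) was run in a luciferase-coupled chemiluminescent format, with ATP near its KM. After 2 h at ambient temperature, remaining ATP was read by luciferase-luciferin luminescence. IC50 came from 10-point dose-response curves fitted to a four-parameter equation with Hill slope.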

T1 sequence (Q9UM73 1098-1410): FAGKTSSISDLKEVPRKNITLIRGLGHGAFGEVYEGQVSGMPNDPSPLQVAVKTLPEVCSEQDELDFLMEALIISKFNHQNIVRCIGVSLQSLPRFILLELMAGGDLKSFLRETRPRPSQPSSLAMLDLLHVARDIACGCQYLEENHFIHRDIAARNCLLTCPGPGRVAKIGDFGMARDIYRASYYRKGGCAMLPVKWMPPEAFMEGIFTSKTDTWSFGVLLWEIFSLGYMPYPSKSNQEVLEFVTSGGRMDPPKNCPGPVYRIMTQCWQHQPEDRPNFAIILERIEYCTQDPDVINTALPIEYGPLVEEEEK

Compound | IC50 [nM]
O=C(COc1ccc(OC(F)(F)F)cc1)NCc1nc(C(=O)N2CCN(c3ccccn3)CC2)cs1 [Entry 279, N-({4-[(4-pyridin-2-ylpiperazin-1-yl)carbonyl]-1,3-thiazol-2-yl}methyl)-2-({4-[(trifluoromethyl)oxy]phenyl}oxy)acetamide] | 500 to 2000
COc1ccccc1CNC(=O)c1csc(CNC(=O)COc2ccc(OC(F)(F)F)cc2)n1 [Entry 17, N-{[2-(methyloxy)phenyl]methyl}-2-({[({4-[(trifluoromethyl)oxy]phenyl}oxy)acetyl]amino}methyl)-1,3-thiazole-4-carboxamide] | < 50
CCCOCCCNC(=O)c1csc(CNC(=O)COc2ccc(OC(F)(F)F)cc2)n1 [Entry 74, N-[3-(propyloxy)propyl]-2-({[({4-[(trifluoromethyl)oxy]phenyl}oxy)acetyl]amino}methyl)-1,3-thiazole-4-carboxamide] | 50 to 500
O=C(COc1ccc(OC(F)(F)F)cc1)NCc1nc(C(=O)NCC(F)(F)F)cs1 [Entry 280, N-(2,2,2-trifluoroethyl)-2-({[({4-[(trifluoromethyl)oxy]phenyl}oxy)acetyl]amino}methyl)-1,3-thiazole-4-carboxamide] | 500 to 2000
Cc1ccc(N2CCN(C(=O)c3csc(CNC(=O)COc4ccc(OC(F)(F)F)cc4)n3)CC2C)cc1 (centres unmarked) [Entry 243, N-[(4-{[3-methyl-4-(4-methylphenyl)piperazin-1-yl]carbonyl}-1,3-thiazol-2-yl)methyl]-2-({4-[(trifluoromethyl)oxy]phenyl}oxy)acetamide] | 500 to 2000
C#CC1(NC(=O)c2csc(CNC(=O)COc3ccc(OC(F)(F)F)cc3)n2)CCCCC1 [Entry 180, N-(1-ethynylcyclohexyl)-2-({[({4-[(trifluoromethyl)oxy]phenyl}oxy)acetyl]amino}methyl)-1,3-thiazole-4-carboxamide] | 50 to 500
COc1ccc(CNC(=O)c2csc(CNC(=O)COc3ccc(OC(F)(F)F)cc3)n2)cc1OC [Entry 187, N-{[3,4-bis(methyloxy)phenyl]methyl}-2-({[({4-[(trifluoromethyl)oxy]phenyl}oxy)acetyl]amino}methyl)-1,3-thiazole-4-carboxamide] | 50 to 500
CC(C)c1ccc(OCC(=O)NCc2nc(C(=O)NCCc3cccc(Cl)c3)cs2)cc1 [Entry 72, N-[2-(3-chlorophenyl)ethyl]-2-{[({[4-(1-methylethyl)phenyl]oxy}acetyl)amino]methyl}-1,3-thiazole-4-carboxamide] | 50 to 500
O=C(COc1ccc(OC(F)(F)F)cc1)NCc1nc(C(=O)N2CCc3ccccc3C2)cs1 [Entry 139, N-{[4-(3,4-dihydroisoquinolin-2(1H)-ylcarbonyl)-1,3-thiazol-2-yl]methyl}-2-({4-[(trifluoromethyl)oxy]phenyl}oxy)acetamide] | 50 to 500
COCCNC(=O)c1csc(CNC(=O)COc2ccc(OC(F)(F)F)cc2)n1 [Entry 287, N-[2-(methyloxy)ethyl]-2-({[({4-[(trifluoromethyl)oxy]phenyl}oxy)acetyl]amino}methyl)-1,3-thiazole-4-carboxamide] | 500 to 2000
C[C@@H]1[C@@H](NC(=O)c2coc(CNC(=O)COc3ccc(OC(F)(F)F)cc3)n2)C[C@H]2C[C@@H]1C2(C)C [Entry 89, 2-({[({4-[(trifluoromethyl)oxy]phenyl}oxy)acetyl]amino}methyl)-N-[(1S,2S,3S,5R)-2,6,6-trimethylbicyclo[3.1.1]hept-3-yl]-1,3-oxazole-4-carboxamide] | 50 to 500
CC(NC(=O)COc1ccc(OC(F)(F)F)cc1)c1nc(C(=O)NCCc2cccc(Cl)c2)cs1 (centres unmarked) [Entry 1, N-[2-(3-chlorophenyl)ethyl]-2-(1-{[({4-[(trifluoromethyl)oxy]phenyl}oxy)acetyl]amino}ethyl)-1,3-thiazole-4-carboxamide] | < 50
COCCCNC(=O)c1csc(CNC(=O)COc2ccc(OC(F)(F)F)cc2)n1 [Entry 269, N-[3-(methyloxy)propyl]-2-({[({4-[(trifluoromethyl)oxy]phenyl}oxy)acetyl]amino}methyl)-1,3-thiazole-4-carboxamide] | 500 to 2000
CCc1ccc(NC(=O)NCc2nc(C(=O)NCc3ccccc3OC)cs2)cc1 [Entry 110, 2-[({[(4-ethylphenyl)amino]carbonyl}amino)methyl]-N-{[2-(methyloxy)phenyl]methyl}-1,3-thiazole-4-carboxamide] | 50 to 500
O=C(COc1ccc(OC(F)(F)F)cc1)NCc1nc(C(=O)NCc2ccc(Cl)c(Cl)c2)co1 [Entry 291, N-[(3,4-dichlorophenyl)methyl]-2-({[({4-[(trifluoromethyl)oxy]phenyl}oxy)acetyl]amino}methyl)-1,3-oxazole-4-carboxamide] | 500 to 2000
CCc1ccc(NC(=O)NCc2nc(C(=O)NCc3cccc(OC)c3OC)cs2)cc1 [Entry 134, N-{[2,3-bis(methyloxy)phenyl]methyl}-2-[({[(4-ethylphenyl)amino]carbonyl}amino)methyl]-1,3-thiazole-4-carboxamide] | 50 to 500
O=C(COc1ccc(OC(F)(F)F)cc1)NCc1nc(C(=O)NCCc2cccc(C(F)(F)F)c2)co1 [Entry 181, 2-({[({4-[(trifluoromethyl)oxy]phenyl}oxy)acetyl]amino}methyl)-N-{2-[3-(trifluoromethyl)phenyl]ethyl}-1,3-oxazole-4-carboxamide] | 50 to 500

Other lines, results leading:

IC50 [nM] | Compound
500 to 2000 | O=C(COc1ccc(OC(F)(F)F)cc1)NCc1nc(C(=O)NCCc2ccccc2)co1 [Entry 242, N-(2-phenylethyl)-2-({[({4-[(trifluoromethyl)oxy]phenyl}oxy)acetyl]amino}methyl)-1,3-oxazole-4-carboxamide]
500 to 2000 | CCOC(=O)N1CCC(NC(=O)c2csc(CNC(=O)COc3ccc(OC(F)(F)F)cc3)n2)CC1 [Entry 283, ethyl 4-({[2-({[({4-[(trifluoromethyl)oxy]phenyl}oxy)acetyl]amino}methyl)-1,3-thiazol-4-yl]carbonyl}amino)piperidine-1-carboxylate]
50 to 500 | CCCCOCCCNC(=O)c1csc(CNC(=O)COc2ccc(OC(F)(F)F)cc2)n1 [Entry 37, N-[3-(butyloxy)propyl]-2-({[({4-[(trifluoromethyl)oxy]phenyl}oxy)acetyl]amino}methyl)-1,3-thiazole-4-carboxamide]
50 to 500 | CC1CCC(NC(=O)c2csc(CNC(=O)COc3ccc(OC(F)(F)F)cc3)n2)CC1 (centres unmarked) [Entry 140, N-(4-methylcyclohexyl)-2-({[({4-[(trifluoromethyl)oxy]phenyl}oxy)acetyl]amino}methyl)-1,3-thiazole-4-carboxamide]
50 to 500 | O=C(COc1ccc(OC(F)(F)F)cc1)NCc1nc(C(=O)N[C@@H]2C[C@H]3CC[C@@H]2C3)cs1 [Entry 105, N-[(1R,2R,4S)-bicyclo[2.2.1]hept-2-yl]-2-({[({4-[(trifluoromethyl)oxy]phenyl}oxy)acetyl]amino}methyl)-1,3-thiazole-4-carboxamide]
< 50 | C[C@H](CNC(=O)c1csc(CNC(=O)COc2ccc(OC(F)(F)F)cc2)n1)c1ccccc1 [Entry 26, N-[(2S)-2-phenylpropyl]-2-({[({4-[(trifluoromethyl)oxy]phenyl}oxy)acetyl]amino}methyl)-1,3-thiazole-4-carboxamide]
50 to 500 | O=C(COc1ccc(OC(F)(F)F)cc1)NCc1nc(C(=O)NCCc2cccnc2)cs1 [Entry 51, N-(2-pyridin-3-ylethyl)-2-({[({4-[(trifluoromethyl)oxy]phenyl}oxy)acetyl]amino}methyl)-1,3-thiazole-4-carboxamide]
500 to 2000 | C[C@H](CNC(=O)c1coc(CNC(=O)COc2ccc(OC(F)(F)F)cc2)n1)c1ccccc1 [Entry 240, N-[(2S)-2-phenylpropyl]-2-({[({4-[(trifluoromethyl)oxy]phenyl}oxy)acetyl]amino}methyl)-1,3-oxazole-4-carboxamide]
500 to 2000 | O=C(COc1ccc(OC(F)(F)F)cc1)NCc1nc(C(=O)NCCCN2CCCC2=O)cs1 [Entry 286, N-[3-(2-oxopyrrolidin-1-yl)propyl]-2-({[({4-[(trifluoromethyl)oxy]phenyl}oxy)acetyl]amino}methyl)-1,3-thiazole-4-carboxamide]
50 to 500 | O=C(NCc1nc(C(=O)NCCc2cccc(Cl)c2)cs1)N[C@@H]1C[C@H]1c1ccccc1 [Entry 217, N-[2-(3-chlorophenyl)ethyl]-2-{[({[(1R,2S)-2-phenylcyclopropyl]amino}carbonyl)amino]methyl}-1,3-thiazole-4-carboxamide]
500 to 2000 | CCCCOc1ccc(NC(=O)NCc2nc(C(=O)NCc3cccc(OC)c3OC)cs2)cc1 [Entry 248, N-{[2,3-bis(methyloxy)phenyl]methyl}-2-{[({[4-(butyloxy)phenyl]amino}carbonyl)amino]methyl}-1,3-thiazole-4-carboxamide]
500 to 2000 | O=C(COc1ccc(OC(F)(F)F)cc1)NCc1nc(C(=O)NCCc2ccc(Br)cc2)co1 [Entry 231, N-[2-(4-bromophenyl)ethyl]-2-({[({4-[(trifluoromethyl)oxy]phenyl}oxy)acetyl]amino}methyl)-1,3-oxazole-4-carboxamide]
50 to 500 | NS(=O)(=O)c1ccc(CCNC(=O)c2coc(CNC(=O)COc3ccc(OC(F)(F)F)cc3)n2)cc1 [Entry 92, N-{2-[4-(aminosulfonyl)phenyl]ethyl}-2-({[({4-[(trifluoromethyl)oxy]phenyl}oxy)acetyl]amino}methyl)-1,3-oxazole-4-carboxamide]
500 to 2000 | O=C(COc1ccc(OC(F)(F)F)cc1)NCc1nc(C(=O)NC2CCCC2)cs1 [Entry 228, N-cyclopentyl-2-({[({4-[(trifluoromethyl)oxy]phenyl}oxy)acetyl]amino}methyl)-1,3-thiazole-4-carboxamide]
50 to 500 | CCOc1ccc(NC(=O)NCc2nc(C(=O)NCCc3cccc(Cl)c3)cs2)cc1 [Entry 184, N-[2-(3-chlorophenyl)ethyl]-2-{[({[4-(ethyloxy)phenyl]amino}carbonyl)amino]methyl}-1,3-thiazole-4-carboxamide]
